Like-named read-outs stand apart in the source and are kept apart here.

For this test, the target named is T1, hENT1 (Homo sapiens, UniProt Q99808).
T1 construct: performed on erythrocyte cell membranes endogenously expressing the transporter; tissue Sanquin Bloedvoorziening, Amsterdam, The Netherlands; host or cells: erythrocyte membranes (endogenous expression)
T1 sequence (Q99808 1-456): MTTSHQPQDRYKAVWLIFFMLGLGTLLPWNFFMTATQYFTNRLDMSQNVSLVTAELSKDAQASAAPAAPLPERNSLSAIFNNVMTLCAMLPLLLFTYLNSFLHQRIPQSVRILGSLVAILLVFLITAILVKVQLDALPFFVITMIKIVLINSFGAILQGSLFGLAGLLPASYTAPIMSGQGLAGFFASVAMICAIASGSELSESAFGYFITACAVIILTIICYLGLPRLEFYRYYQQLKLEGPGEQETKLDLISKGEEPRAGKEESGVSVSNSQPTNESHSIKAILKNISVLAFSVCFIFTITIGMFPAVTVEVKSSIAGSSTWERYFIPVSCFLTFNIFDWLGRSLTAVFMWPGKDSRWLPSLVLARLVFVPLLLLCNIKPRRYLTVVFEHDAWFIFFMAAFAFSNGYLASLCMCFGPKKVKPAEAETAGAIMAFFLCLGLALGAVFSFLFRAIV
In words: time-dependent hENT1 radioligand binding assay ([3H]NBTI displacement with or without 4 h preincubation). The conditions noted are these: for % displacement at 1 μM at 4 h preincubation / % displacement at 1 μM without preincubation / [3H]NBTI displacement: 1 µM inhibitor; for % displacement at 1 μM at 4 h preincubation / % displacement at 1 μM without preincubation: mean (individual values) of two experiments; for [3H]NBTI displacement: with or without 4 h preincubation not told apart; for time-dependent shift in affinity (pKi shift) or displacement upon 4 h preincubation: 4 h preincubation vs without preincubation. As for the experimental part:
Radioligand displacement assays were performed as previously described. In brief, the experiments were performed on erythrocyte membranes (Sanquin Bloedvoorziening, Amsterdam, The Netherlands) using a single concentration of 1 µM or multiple concentrations (ranging from 10^–10 to 10^–6) of unlabeled inhibitors in the presence of 4 nM [^3H]NBTI at 10 °C for 1 h in assay buffer (50 mM Tris–HCl, pH 7.4, 0.1% w/v CHAPS). Non-specific binding (NSB) was assessed with 10 µM unlabeled NBTI. […] Subsequently, [^3H]NBTI was added to the preincubated and control samples (containing erythrocyte membranes, unlabeled inhibitor and radioligand) and both types of samples were incubated for another hour. Incubation was terminated by rapid vacuum filtration over Whatman™ UniFilter™ 96-well GF/C microplates using a FilterMate™ Universal Harvester (PerkinElmer, Groningen, The Netherlands). Subsequently, the plates were washed ten times with ice-cold wash buffer (50 mM Tris–HCl, pH 7.4). Thereafter, the filters were dried for 45 min at 55 °C and 25 µL of Microscint (PerkinElmer) was added per well.
All experimental data was analyzed using GraphPad Prism 10.0.2 software (GraphPad Software Inc., San Diego, CA, USA). [^3H]NBTI assays were baseline-corrected with NSB and normalized to this value (0%) and TB (100%). The radioligand displacement curves were fitted to a one-site binding model by nonlinear regression from which the pIC50 values were obtained. […] Data shown represent the mean ± SD of at least two or mean ± SEM of at least three individual experiments each performed in duplicate.
Next, the potentially covalent inhibitors that we synthesized were subjected to the aforementioned radioligand displacement assay. To study the existence of a covalent interaction with hENT1, an additional preincubation step was included.

Where [1] appears, read: Ki (nM) at 4 h preincubation, 4 h preincubation at 10 °C.
[2] abbreviates: pKi ± SEM at 4 h preincubation, 4 h preincubation at 10 °C.
The mark [3] stands for this setting: without preincubation, read-out: Ki (nM) without preincubation (converted).

For the compound `COc1cc(C(=O)OCCCN2CCN(CCOC(=O)c3cccc(S(=O)(=O)F)c3)CC2)cc(OC)c1OC` [Compound 9a, 3-(4-(2-((3-(fluorosulfonyl)benzoyl)oxy)ethyl)piperazin-1-yl)propyl 3,4,5-trimethoxybenzoate], the “% displacement at 1 μM at 4 h preincubation” value (4 h preincubation at 10 °C) is 3 (-9, 13) %. Further, under “without preincubation”, the “% displacement at 1 μM without preincubation” value is listed as -14 (-21, -7) %.
As for `COc1cc(C(=O)OCCCN2CCN(CCCOC(=O)c3cccc(S(=O)(=O)F)c3)CC2)cc(OC)c1OC` [Compound 9b, 3-(4-(3-((3-(fluorosulfonyl)benzoyl)oxy)propyl)piperazin-1-yl)propyl 3,4,5-trimethoxybenzoate], the “% displacement at 1 μM at 4 h preincubation” value (4 h preincubation at 10 °C) is 33 (32, 34) %. Also, the “% displacement at 1 μM without preincubation” value (without preincubation) was 33 (32, 33) %.
With `COc1cc(C(=O)OCCCN2CCN(CCCCOC(=O)c3cccc(S(=O)(=O)F)c3)CC2)cc(OC)c1OC` [Compound 9c, 3-(4-(4-((3-(fluorosulfonyl)benzoyl)oxy)butyl)piperazin-1-yl)propyl 3,4,5-trimethoxybenzoate], where the note is “4 h preincubation at 10 °C”, the “% displacement at 1 μM at 4 h preincubation” value is 51 (48, 54) %. Also, the “% displacement at 1 μM without preincubation” value (without preincubation) is on record as 61 (53, 69) %.
Regarding `COc1cc(C(=O)OCCCN2CCN(CCOC(=O)c3ccc(S(=O)(=O)F)cc3)CC2)cc(OC)c1OC` [Compound 9d, 3-(4-(2-((4-(fluorosulfonyl)benzoyl)oxy)ethyl)piperazin-1-yl)propyl 3,4,5-trimethoxybenzoate], for the setting “4 h preincubation at 10 °C”, the “% displacement at 1 μM at 4 h preincubation” value is reported as 33 (34, 32) %. Further, the “% displacement at 1 μM without preincubation” value (without preincubation) is given as 17 (12, 22) %.
With `COc1cc(C(=O)OCCCN2CCN(CCCOC(=O)c3ccc(S(=O)(=O)F)cc3)CC2)cc(OC)c1OC` [Compound 9e, 3-(4-(3-((4-(fluorosulfonyl)benzoyl)oxy)propyl)piperazin-1-yl)propyl 3,4,5-trimethoxybenzoate], the “% displacement at 1 μM at 4 h preincubation” value (4 h preincubation at 10 °C) is reported as 26 (30, 22) %. Moreover, the “% displacement at 1 μM without preincubation” value (without preincubation) was 26 (24, 27) %.
`COc1cc(C(=O)OCCCN2CCN(CCCCOC(=O)c3ccc(S(=O)(=O)F)cc3)CC2)cc(OC)c1OC` [Compound 9f, 3-(4-(4-((4-(fluorosulfonyl)benzoyl)oxy)butyl)piperazin-1-yl)propyl 3,4,5-trimethoxybenzoate]: for the setting “4 h preincubation at 10 °C”, the “% displacement at 1 μM at 4 h preincubation” value was 54 (53, 56) %. The “% displacement at 1 μM without preincubation” value (without preincubation) is 57 (52, 62) %.
Regarding `COc1cc(C(=O)OCCCN2CCN(CCCOC(=O)c3ccc(N=C=S)cc3)CC2)cc(OC)c1OC` [Compound 9g, 3-(4-(3-((4-isothiocyanatobenzoyl)oxy)propyl)piperazin-1-yl)propyl 3,4,5-trimethoxybenzoate], the Ki is, setting by setting: under setting [1], 29.9 nM; under setting [2], 29.5 nM; under setting [3], 48.5 nM.
Turning to `C=CC(=O)Nc1cccc(C(=O)OCCCN2CCN(CCCOC(=O)c3cc(OC)c(OC)c(OC)c3)CC2)c1` [Compound 10a, 3-(4-(3-((3-acrylamidobenzoyl)oxy)propyl)piperazin-1-yl)propyl 3,4,5-trimethoxybenzoate], the “[3H]NBTI displacement” value is listed as “around 20%”. For the same compound, the “% displacement at 1 μM at 4 h preincubation” value (4 h preincubation at 10 °C) is on record as 24 (18, 30) %. Also, the “% displacement at 1 μM without preincubation” value (without preincubation) is on record as 20 (15, 26) %.
In the case of `C=CC(=O)Nc1ccc(C(=O)OCCCN2CCN(CCCOC(=O)c3cc(OC)c(OC)c(OC)c3)CC2)cc1` [Compound 10b, 3-(4-(3-((4-acrylamidobenzoyl)oxy)propyl)piperazin-1-yl)propyl 3,4,5-trimethoxybenzoate], the “time-dependent shift in affinity (pKi shift) or displacement upon 4 h preincubation” value (from here on “time-dependent shift in affinity”) is recorded as “absence of a pKi shift”. Also, the Ki under setting [1] is 43.6 nM. In addition, under setting [3], the Ki was 33.1 nM.
As for `C=CC(=O)Nc1ccc(C(=O)OCCCCN2CCN(CCCOC(=O)c3cc(OC)c(OC)c(OC)c3)CC2)cc1` [Compound 10c, 3-(4-(4-((4-acrylamidobenzoyl)oxy)butyl)piperazin-1-yl)propyl 3,4,5-trimethoxybenzoate], the “% displacement at 1 μM at 4 h preincubation” value (4 h preincubation at 10 °C) is 41 (30, 51) %. For the same compound, the “% displacement at 1 μM without preincubation” value (without preincubation) was 47 (40, 54) %.
`C=CC(=O)Nc1ccc(C(=O)OCCCN2CCN(CCCOC(=O)c3cc(OC)c(OC)c(OC)c3)CC2)cc1OC` [Compound 10d, 3-(4-(3-((4-acrylamido-3-methoxybenzoyl)oxy)propyl)piperazin-1-yl)propyl 3,4,5-trimethoxybenzoate]: the “[3H]NBTI displacement” value is recorded as “around 20%”. In addition, the “% displacement at 1 μM without preincubation” value (without preincubation) is on record as 27 (28, 26) %.
In the case of `C=CC(=O)NCc1ccc(C(=O)OCCCN2CCN(CCCOC(=O)c3cc(OC)c(OC)c(OC)c3)CC2)cc1` [Compound 10e, 3-(4-(3-((4-(acrylamidomethyl)benzoyl)oxy)propyl)piperazin-1-yl)propyl 3,4,5-trimethoxybenzoate], the “% displacement at 1 μM at 4 h preincubation” value (4 h preincubation at 10 °C) is 29 (20, 37) %. Also, where the note is “without preincubation”, the “% displacement at 1 μM without preincubation” value is 29 (24, 35) %.
Turning to `C=CC(=O)NCCc1ccc(C(=O)OCCCN2CCN(CCCOC(=O)c3cc(OC)c(OC)c(OC)c3)CC2)cc1` [Compound 10f, 3-(4-(3-((4-(2-acrylamidoethyl)benzoyl)oxy)propyl)piperazin-1-yl)propyl 3,4,5-trimethoxybenzoate], the “% displacement at 1 μM at 4 h preincubation” value (4 h preincubation at 10 °C) was 7 (0, 13) %. Also, where the note is “without preincubation”, the “% displacement at 1 μM without preincubation” value was 10 (2, 18) %.
Consider `C=CC(=O)NCCOc1c(OC)cc(C(=O)OCCCN2CCN(CCCOC(=O)c3cc(OC)c(OC)c(OC)c3)CC2)cc1OC` [Compound 14a, 3-(4-(3-((4-(2-acrylamidoethoxy)-3,5-dimethoxybenzoyl)oxy)propyl)piperazin-1-yl)propyl 3,4,5-trimethoxybenzoate], for which the “time-dependent shift in affinity” value was “no observable pKi shift”. Under setting [1], this compound showed a Ki of 50.6 nM. The Ki under setting [3] was 48.6 nM.
Turning to `C=CC(=O)NCCCOc1c(OC)cc(C(=O)OCCCN2CCN(CCCOC(=O)c3cc(OC)c(OC)c(OC)c3)CC2)cc1OC` [Compound 14b, 3-(4-(3-((4-(3-acrylamidopropoxy)-3,5-dimethoxybenzoyl)oxy)propyl)piperazin-1-yl)propyl 3,4,5-trimethoxybenzoate], the “time-dependent shift in affinity” value is “no significant increase of the affinity”. The compound further showed a Ki under setting [2] of 3.24 nM. For the same compound, the Ki under setting [3] is 5.9 nM.
With `COc1cc(C(=O)OCCCN2CCN(CCCOC(=O)c3cc(OC)c(OCCCN=C=S)c(OC)c3)CC2)cc(OC)c1OC` [Compound 14c, 3-(4-(3-((4-(3-isothiocyanatopropoxy)-3,5-dimethoxybenzoyl)oxy)propyl)piperazin-1-yl)propyl 3,4,5-trimethoxybenzoate], the “time-dependent shift in affinity” value is on record as “no significant increase of the affinity”. The Ki under setting [2] is 1.55 nM. In addition, the Ki (without preincubation, read-out: pKi ± SEM without preincubation (converted)) was 1.07 nM.
As to `C=CS(=O)(=O)NCCCOc1c(OC)cc(C(=O)OCCCN2CCN(CCCOC(=O)c3cc(OC)c(OC)c(OC)c3)CC2)cc1OC` [Compound 14d, 3-(4-(3-((3,5-dimethoxy-4-(3-(vinylsulfonamido)propoxy)benzoyl)oxy)propyl)piperazin-1-yl)propyl 3,4,5-trimethoxybenzoate], the “time-dependent shift in affinity” value is listed as “no significant increase of the affinity”. Also, under setting [1], the Ki is 14.2 nM. Also, the Ki under setting [3] is 17.5 nM.

Values taken from publication PMC12061832, “Exploring novel dilazep derivatives as hENT1 inhibitors and potentially covalent molecular tools” (Purinergic Signalling, 2024).
